Data: ChEMBL document CHEMBL1136022, “Development of tripeptidyl farnesyltransferase inhibitors” (Bioorg Med Chem Lett, 2002)
Where a SMILES comes first, the peptide text is derived from it. The star is where a group is joined. Isovaleryl = CC(C)CC(=O)*; Isobutyryl = CC(C)C(=O)*; Octanoyl = CCCCCCCC(=O)*; Hexanoyl = CCCCCC(=O)*; PhAc = O=C(Cc1ccccc1)*; Bz = O=C(c1ccccc1)*

What was measured:
[1] = molecular target: Protein farnesyltransferase (Bos taurus, UniProt P29702+P49355); experiment: In vitro inhibition of bovine Farnesyltransferase.; type: protein-complex assay
[2] = molecular target: Protein farnesyltransferase (Bos taurus) (UniProt P29702+P49355); experiment: In vitro inhibition of bovine Farnesyltransferase at a 1 ug/mL.; type: protein-complex assay

Row | SMILES | IC50 [1] [µM] | inhibition [2] [%]
1 | COC(=O)[C@H](Cc1ccc(OC(=O)CC(C)C)cc1)NC(=O)[C@@H](NC(=O)[C@@H](N)CS)C(C)C (H-Cys-Val-Tyr(Isovaleryl)-OMe) | 0.82 | 74
2 | COC(=O)[C@H](COC(=O)/C=C/c1ccccc1)NC(=O)[C@@H](NC(=O)[C@@H](N)CS)C(C)C | – | 16.3
3 | COC(=O)[C@H](COC(=O)c1ccccc1)NC(=O)[C@@H](NC(=O)[C@@H](N)CS)C(C)C (H-Cys-Val-Ser(Bz)-OMe) | 0.9 | 69.3
4 | COC(=O)[C@H](Cc1ccc(OC(=O)CC(C)CCCC(C)C)cc1)NC(=O)[C@@H](NC(=O)[C@@H](N)CS)C(C)C (some centres undefined) | 8.1 | 10
5 | COC(=O)[C@H](Cc1cccc(OC(C)=O)c1)NC(=O)[C@@H](NC(=O)[C@@H](N)CS)C(C)C | – | 12
6 | COC(=O)[C@H](Cc1cccc(OC(=O)c2ccccc2)c1)NC(=O)[C@@H](NC(=O)[C@@H](N)CS)C(C)C | – | 69.3
7 | COC(=O)[C@H](COC(=O)c1ccc(C)cc1)NC(=O)[C@@H](NC(=O)[C@@H](N)CS)C(C)C | 0.92 | 67
8 | CCCCCC(=O)Oc1ccc(C[C@H](NC(=O)[C@@H](NC(=O)[C@@H](N)CS)C(C)C)C(=O)OC)cc1 (H-Cys-Val-Tyr(Hexanoyl)-OMe) | 7.5 | 42
9 | COC(=O)[C@H](COC(=O)c1ccc(OC)cc1)NC(=O)[C@@H](NC(=O)[C@@H](N)CS)C(C)C | 1.8 | 57
10 | COC(=O)[C@H](CCSC)NC(=O)[C@H](Cc1ccccc1)NC(=O)[C@@H](NC(=O)[C@@H](N)CS)C(C)C | 5.8 | –
11 | COC(=O)[C@H](COC(=O)C=C(C)C)NC(=O)[C@@H](NC(=O)[C@@H](N)CS)C(C)C | – | 38.6
12 | COC(=O)[C@H](COC(=O)c1ccc(Cl)cc1)NC(=O)[C@@H](NC(=O)[C@@H](N)CS)C(C)C | 0.82 | 75
13 | CCCCCCCC(=O)Oc1ccc(C[C@H](NC(=O)[C@@H](NC(=O)[C@@H](N)CS)C(C)C)C(=O)OC)cc1 (H-Cys-Val-Tyr(Octanoyl)-OMe) | 22 | 17
14 | COC(=O)[C@H](Cc1cccc(OC(=O)C(C)C)c1)NC(=O)[C@@H](NC(=O)[C@@H](N)CS)C(C)C | 10 | 30
15 | COC(=O)[C@H](Cc1ccc(OC(=O)C(C)C)cc1)NC(=O)[C@@H](NC(=O)[C@@H](N)CS)C(C)C (H-Cys-Val-Tyr(Isobutyryl)-OMe) | 12 | 26.7
16 | COC(=O)[C@H](Cc1cccc(OC(=O)/C=C/c2ccccc2)c1)NC(=O)[C@@H](NC(=O)[C@@H](N)CS)C(C)C | 17 | 17
17 | COC(=O)[C@H](Cc1ccc(OC(=O)C=C(C)C)cc1)NC(=O)[C@@H](NC(=O)[C@@H](N)CS)C(C)C | 0.5 | 79.6
18 | COC(=O)[C@H](Cc1cccc(OC(=O)C=C(C)C)c1)NC(=O)[C@@H](NC(=O)[C@@H](N)CS)C(C)C | 8.4 | 61
19 | COC(=O)[C@H](Cc1ccc(OC(=O)c2ccccc2)cc1)NC(=O)[C@@H](NC(=O)[C@@H](N)CS)C(C)C (H-Cys-Val-Tyr(Bz)-OMe) | 20 | 23.4
20 | COC(=O)[C@H](Cc1ccc(OC(=O)/C=C/c2ccccc2)cc1)NC(=O)[C@@H](NC(=O)[C@@H](N)CS)C(C)C | 43 | 12.6
21 | COC(=O)[C@H](Cc1ccc(OC(C)=O)cc1)NC(=O)[C@@H](NC(=O)[C@@H](N)CS)C(C)C (H-Cys-Val-Tyr(Ac)-OMe) | 48 | 6.3
22 | COC(=O)[C@H](Cc1ccc(OC(=O)Cc2ccccc2)cc1)NC(=O)[C@@H](NC(=O)[C@@H](N)CS)C(C)C (H-Cys-Val-Tyr(PhAc)-OMe) | – | 32
23 | COC(=O)[C@H](CO)NC(=O)[C@@H](NC(=O)[C@@H](N)CS)C(C)C (H-Cys-Val-Ser-OMe) | – | 0
